ChEMBL document CHEMBL5360614, “Quinoline Thiourea-Based Zinc Ionophores with Antibacterial Activity” (J Med Chem, 2023)
In brackets after ≈: the same amount, converted by molar mass. Activity calls are given as the source filed them. The rule behind the calls is not given here.

Legend:
Lipid bilayer [1] = test: (§1) Induction of ionophore activity across EYPC:CHOL (8:2) large unilamellar vesicles assessed as transmembrane cation transport by measuring decrease in fluorescence intensity for HPTS dye preincubated for 3 mins followed by MnCl2 addition and mesured after 7.5 mins by HPTS dye based fluorescence spectrophotometric analysis; details: time 10.5 min
Lipid bilayer [2] = test: (§2) Induction of ionophore activity across EYPC:CHOL (8:2) large unilamellar vesicles assessed as transmembrane anion transport by measuring decrease in fluorescence intensity for HPTS dye at 10 uM preincubated for 3 mins followed by ZnCl2 addition and mesured after 7.5 mins by HPTS dye based fluorescence spectrophotometric analysis; details: filed as opener, time 10.5 min
Staphylococcus aureus [3] = test: In vivo antibacterial activity against Staphylococcus aureus MTCC-96 infected in Balb/c mouse assessed as uniform distribution of hepatocytes in liver tissue at 31.6 microM/Kg, iv for 7 days in presence of ZnCl2 by hematoxylin and eosin staining based microscopic analysis; type: functional, organism-based; details: time 7.0 day
Lipid bilayer [4] = test: as §1, with “Zn2+ ion” for “cation”, “ZnCl2” for “MnCl2”
A549 = test: Cytotoxicity against human A549 cells assessed as reduction in cell viability at 1 to 100 uM incubated for 44 hrs by MTT assay; type: toxicity, cell-based; details: a549, 44 h, dose 1-100 µM
Staphylococcus aureus [5] = test: In vivo antibacterial activity against Staphylococcus aureus MTCC-96 infected in Balb/c mouse assessed as uniform distribution of hepatocytes in liver tissue at 156.5 microM/Kg, iv for 7 days by hematoxylin and eosin staining based microscopic analysis; type: functional, organism-based; details: time 7.0 day
Staphylococcus aureus [6] = test: Antibacterial activity against Staphylococcus aureus MTCC-96 assessed as resistance development by measuring fold increase in MIC and measured after 30 days in presence of ZnCl2 by microbroth dilution method; type: functional, organism-based; details: time 30.0 day
Staphylococcus aureus [7] = test: In vivo antibacterial activity against Staphylococcus aureus MTCC-96 infected in Balb/c mouse assessed as normal architecture of bile duct in liver tissue at 31.6 microM/Kg, iv for 7 days in presence of ZnCl2 by hematoxylin and eosin staining based microscopic analysis; type: functional, organism-based; details: time 7.0 day
[8] = Binding affinity to Zn2+ ion assessed as binding constant by Benesi-Hildebrand equation analysis
Staphylococcus aureus [9] = test: Antibacterial activity against Staphylococcus aureus MTCC-96 assessed as reduction in bacterial growth incubated for 14 to 16 hrs in presence of 100 to 400 uM CsCl by microbroth dilution method; type: functional, organism-based; details: time 14-16 hrs
Lipid bilayer [10] = test: as §1, with “MgCl2” for “MnCl2”; details: time 10.5 min
Lipid bilayer [11] = test: as §1, with “CuCl2” for “MnCl2”; details: filed as opener; time 10.5 min
Lipid bilayer [12] = test: (§3) Induction of ionophore activity across EYPC:CHOL (8:2) large unilamellar vesicles assessed as transmembrane Zn2+ ion transport by measuring decrease in fluorescence intensity for HPTS dye at 25 uM preincubated for 3 mins followed by 1 to 25 mM ZnCl2 addition and mesured after 7.5 mins by HPTS dye based fluorescence spectrophotometric analysis; details: filed as opener, time 10.5 min
Cell membrane [13] = test: Induction of cell membrane depolarization in Staphylococcus aureus MTCC-96 assessed as change in fluorescence intensity at 3.13 uM by DiSC3-5 dye based fluorescence method; type: subcellular
Lipid bilayer [14] = test: as §1, with “anion” for “cation”, “Zn(NO3)2” for “MnCl2”; details: filed as opener; time 10.5 min
Lipid bilayer [15] = test: as §3, with “measuring” for “measuring decrease in”, “CFZ” for “HPTS”, “5 to 20” for “25”, “by” for “by 1 to 25 mM”; details: filed as opener; dose 5-20 µM, time 10.5 min
Lipid bilayer [16] = test: as §1, with “CaCl2” for “MnCl2”; details: time 10.5 min
HCT-116 = test: Cytotoxicity against human HCT-116 cells assessed as reduction in cell viability at 1 to 100 uM incubated for 44 hrs by MTT assay; type: toxicity, cell-based; details: hct-116, 44 h, dose 1-100 µM
Erythrocyte = test: Hemolytic activity in human Red blood cells assessed as hemolysis rate at 1.6 to 50 uM incubated for 1 to 24 hrs in presence of ZnCl2 by absorbance based analysis; type: toxicity, cell-based; details: dose lower 1.6 µM, time lower 1 hrs, dose upper 50 µM, time upper 24 hrs
Lipid bilayer [17] = test: as §1, with “LiCl” for “MnCl2”; details: time 10.5 min
Staphylococcus aureus [18] = test: In vivo antibacterial activity against Staphylococcus aureus MTCC-96 infected in Balb/c mouse assessed as normal architecture of central vein in liver tissue at 31.6 microM/Kg, iv for 7 days in presence of ZnCl2 by hematoxylin and eosin staining based microscopic analysis; type: functional, organism-based; details: time 7.0 day
Cell membrane [19] = test: Induction of ionophore activity across Staphylococcus aureus MTCC-96 cell membrane assessed as AQZ directed Zn2+ ion transport by measuring increase in AQZ fluorescence intensity in presence of ZnCl2 and 2-((2-(2-hydroxyethoxy)ethyl)-amino)-N-(quinolin-8-yl)acetamide by fluorescence analysis; type: subcellular; details: filed as opener
Staphylococcus aureus [20] = test: In vivo antibacterial activity against Staphylococcus aureus MTCC-96 infected in Balb/c mouse assessed as reduction in bacterial load by measuring CFU in liver at 31.6 microM/Kg, iv for 7 days in presence of ZnCl2 by CFU assay; type: functional, organism-based; details: time 7.0 day
Lipid bilayer [21] = test: as §2, with “as transmembrane Zn2+ ion transport by” for “as transmembrane anion transport by”, “3 mins in presence of FCCP followed by” for “3 mins followed by”; details: filed as opener, time 10.5 min
Staphylococcus aureus [22] = test: Antibacterial activity against gentamicin-and methicillin-resistant Staphylococcus aureus ATCC 33592 assessed as reduction in bacterial growth incubated for 14 to 16 hrs in presence of 400 uM ZnCl2 by microbroth dilution method; type: functional; details: time 14-16 hrs
Staphylococcus aureus [23] = test: Antibacterial activity against Staphylococcus aureus MTCC-96 assessed as reduction in bacterial growth incubated for 14 to 16 hrs by microbroth dilution method; type: functional; details: time 14-16 hrs
Staphylococcus aureus [24] = test: Antibacterial activity against Staphylococcus aureus MTCC-96 assessed as resistance development by measuring fold increase in MIC and measured after 30 days by microbroth dilution method; type: functional; details: time 30 day
Lipid bilayer [25] = test: as §1, with “KCl” for “MnCl2”; details: time 10.5 min
Staphylococcus aureus [26] = test: In vivo antibacterial activity against Staphylococcus aureus MTCC-96 infected in Balb/c mouse assessed as normal morphology of spleen tissue at 156.5 microM/Kg, iv for 7 days by hematoxylin and eosin staining based microscopic analysis; type: functional, organism-based; details: time 7.0 day
Staphylococcus aureus [27] = test: In vivo antibacterial activity against Staphylococcus aureus MTCC-96 infected in Balb/c mouse assessed as reduction in bacterial load by measuring CFU in spleen at 31.6 microM/Kg, iv for 7 days in presence of ZnCl2 by CFU assay; type: functional, organism-based; details: time 7.0 day
Staphylococcus aureus [28] = test: Antibacterial activity against Staphylococcus aureus MTCC-96 assessed as reduction in bacterial growth incubated for 14 to 16 hrs in presence of EGTA by microbroth dilution method; type: functional; details: time 14-16 hrs
Lipid bilayer [29] = test: as §1, with “NaCl” for “MnCl2”; details: time 10.5 min

## FC(F)(F)c1cc(NC(=S)Nc2cccc3ccc(-n4cnc5ccccc54)nc23)cc(C(F)(F)F)c1
Lipid bilayer [1]
  Activity: inactive
Lipid bilayer [2]
  Activity: Active
Staphylococcus aureus [3]
  Activity: Active
Lipid bilayer [4]
  EC50: 5.49 µM
A549
  Activity: Non-Toxic
Staphylococcus aureus [5]
  Activity: Active
Staphylococcus aureus [6]
  Activity: inactive
Staphylococcus aureus [7]
  Activity: Active
[8]
  K: 1.36 10^3/M
Staphylococcus aureus [9]
  Activity: inactive
Lipid bilayer [10]
  Activity: inactive
Lipid bilayer [11]
  Activity: Active
Lipid bilayer [12]
  Activity: Active
Cell membrane [13]
  Activity: inactive
Lipid bilayer [14]
  Activity: Active
Lipid bilayer [15]
  Activity: Dose-Dependent Effect
Lipid bilayer [16]
  Activity: inactive
HCT-116
  Activity: Non-Toxic
Erythrocyte
  Activity: Non-Toxic
Lipid bilayer [17]
  Activity: inactive
Staphylococcus aureus [18]
  Activity: Active
Cell membrane [19]
  Activity: Active
Staphylococcus aureus [20]
  Activity: Active
Lipid bilayer [21]
  Activity: Active
Staphylococcus aureus [22]
  MIC: 2 µM
Staphylococcus aureus [23]
  MIC: 3.13 µM (≈ 1.66 µg/mL)
Staphylococcus aureus [24]
  fold change (FC): 14
Lipid bilayer [25]
  Activity: inactive
Staphylococcus aureus [26]
  Activity: Active
Staphylococcus aureus [27]
  Activity: Active
Staphylococcus aureus [28]
  MIC: 6.25 µM
Lipid bilayer [29]
  Activity: inactive
